Assay results reported in patent US9862716B2, “TRKA kinase inhibitors, compositions and methods thereof” (Merck Sharp & Dohme Corp., priority 2014, dated 2018).

These molecules were tested against T1, human TrkA receptor (Homo sapiens, UniProt P04629) (assay: DiscoverX PathHunter TrkA functional assay (NGF-stimulated U2OS cells)). Details: U2OS cells expressing human TrkA-PK, Shc1-EA and p75NTR; compound 1 h, then NGF at ~80% of maximal response for 3 h; luminescence.
T1 construct: host or cells: U2OS cells (PathHunter cell line)
Assay type: cell-based

T1 sequence (P04629 33-796): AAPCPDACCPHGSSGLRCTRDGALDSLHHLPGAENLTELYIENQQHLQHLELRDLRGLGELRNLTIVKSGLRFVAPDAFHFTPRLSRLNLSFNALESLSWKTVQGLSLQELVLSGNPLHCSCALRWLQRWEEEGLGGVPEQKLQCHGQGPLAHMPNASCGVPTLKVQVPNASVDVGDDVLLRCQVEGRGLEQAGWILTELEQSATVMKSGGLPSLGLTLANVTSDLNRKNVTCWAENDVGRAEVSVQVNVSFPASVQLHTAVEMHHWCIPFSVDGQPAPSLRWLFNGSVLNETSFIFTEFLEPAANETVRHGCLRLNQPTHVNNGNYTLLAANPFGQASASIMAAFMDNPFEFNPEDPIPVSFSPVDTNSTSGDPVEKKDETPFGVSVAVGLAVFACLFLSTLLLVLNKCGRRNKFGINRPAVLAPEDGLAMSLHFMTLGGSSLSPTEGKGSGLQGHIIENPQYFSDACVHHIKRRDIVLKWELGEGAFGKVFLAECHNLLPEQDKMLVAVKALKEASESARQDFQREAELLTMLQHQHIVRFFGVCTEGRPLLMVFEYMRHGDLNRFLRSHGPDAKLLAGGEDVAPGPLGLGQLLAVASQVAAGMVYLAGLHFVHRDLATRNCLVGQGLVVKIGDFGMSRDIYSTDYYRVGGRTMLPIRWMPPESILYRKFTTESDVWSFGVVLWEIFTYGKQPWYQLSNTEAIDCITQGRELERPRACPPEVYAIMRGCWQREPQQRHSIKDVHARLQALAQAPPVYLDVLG

Point of comparison: `CC(=O)NCCc1ccn2c(NC(=O)c3ccc(C(F)(F)F)c(-c4ccn(C)n4)c3)c(-c3ccccc3)nc2c1` [Compound 101, N-{7-[2-(acetylamino)ethyl]-2-phenylimidazo[1,2-a]pyridin-3-yl}-3-(1-methyl-1H-pyrazol-3-yl)-4-(trifluoromethyl) benzamide], IC50 10 nM. Against it:
- Cn1ccc(-c2cc(C(=O)Nc3c(-c4ccccc4)nc4cc(CCNS(C)(=O)=O)ccn34)ccc2C(F)(F)F)n1 [Compound 102, 3-(1-methyl-1H-pyrazol-3-yl)-N-(7-{2-[(methylsulfonyl)amino]ethyl}-2-phenylimidazo[1,2-a]pyridin-3-yl)-4-(trifluoromethyl) benzamide] — 2.3-fold lower, 4.3 nM
- Cn1ccc(-c2cc(C(=O)Nc3c(-c4ccccc4)nn4ccc(C(C)(C)O)cc34)c(F)cc2C(F)(F)F)n1 [Compound 103, 2-fluoro-N-[5-(1-hydroxy-1-methylethyl)-2-phenylpyrazolo[1,5-a]pyridin-3-yl]-5-(1-methyl-1H-pyrazol-3-yl)-4-(trifluoromethyl) benzamide] — 11-fold lower, 0.94 nM
- COC(=O)NCCc1ccn2c(NC(=O)c3ccc(C(F)(F)F)c(-c4ccn(C)n4)c3)c(-c3ccccc3)nc2c1 [Compound 104, methyl{2-[3-({[3-(1-methyl-1H-pyrazol-3-yl)-4-(trifluoromethyl)phenyl]carbonyl}amino)-2-phenylimidazo[1,2-a]pyridin-7-yl]ethyl}carbamate] — 5.9-fold lower, 1.7 nM
- O=C(Nc1c(-c2ccccc2)nc2ccccn12)c1cc(-c2ncccn2)c(C(F)(F)F)cc1F [Compound 105, 2-fluoro-N-(2-phenylimidazo[1,2-a]pyridin-3-yl)-5-pyrimidin-2-yl-4-(trifluoromethyl) benzamide] — 7.1-fold lower, 1.4 nM
- Cn1ccc(-c2cc(C(=O)Nc3c(-c4ccccc4)[nH]c4ccc(C#N)cc34)c(F)cc2C(F)(F)F)n1 [Compound 108, N-(5-cyano-2-phenyl-1H-indol-3-yl)-2-fluoro-5-(1-methyl-1H-pyrazol-3-yl)-4-(trifluoromethyl) benzamide] — 10-fold lower, 1 nM
- CNCCc1ccn2c(NC(=O)c3ccc(C(F)(F)F)c(-c4ccn(C)n4)c3)c(-c3ccccc3)nc2c1 [Compound 109, N-{7-[2-(methylamino)ethyl]-2-phenylimidazo[1,2-a]pyridin-3-yl}-3-(1-methyl-1H-pyrazol-3-yl)-4-(trifluoromethyl) benzamide] — 17-fold higher, 169 nM
- Cn1ccc(-c2cc(C(=O)Nc3c(-c4ccccc4)[nH]c4ccc(C(=O)O)cc34)c(F)cc2C(F)(F)F)n1 [Compound 110, 3-({[2-fluoro-5-(1-methyl-1H-pyrazol-3-yl)-4-(trifluoromethyl)phenyl]carbonyl}amino)-2-phenyl-1H-indole-5-carboxylic acid] — 2.8-fold lower, 3.6 nM
- Cn1ccc(-c2cc(C(=O)Nc3c(-c4ccccc4)nn4cc(C#N)ccc34)c(F)cc2C(F)(F)F)n1 [Compound 111, N-(6-cyano-2-phenylpyrazolo[1,5-a]pyridin-3-yl)-2-fluoro-5-(1-methyl-1H-pyrazol-3-yl)-4-(trifluoromethyl) benzamide] — 100-fold higher, 1000 nM
- C[C@@H](O)c1ccn2c(NC(=O)c3cc(-c4ccn(C)n4)c(C(F)(F)CF)cc3F)c(-c3ccccc3)nc2c1 [Compound 115, 2-fluoro-N-{7-[(1R)-1-hydroxyethyl]-2-phenylimidazo[1,2-a]pyridin-3-yl}-5-(1-methyl-1H-pyrazol-3-yl)-4-(1,1,2-trifluoroethyl)benzamide] — 2.7-fold lower, 3.7 nM
